“And” between values parts separate entries of the source, which are not always exact repeats. Identical values can stand only once.
Tests used:
BT-474 [1] = test: normalised viability (% of control), CellTiter-Blue; higher = more viable cells (about 100 = DMSO control); conditions: 100 nM; incubation time: 72 h
Method in brief: (§1)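 Breast cancer cell lines in 20 µl suspension were seeded onto 384-well plates pre-loaded with compound dissolved in 5 µl medium, then incubated 72 h. CellTiter-Blue reagent (2.5 µl) was added for 2 h at 37 °C and fluorescence read at 560/590 nm. Each plate was normalised to vehicle (100) and a positive kill control (0), with Z'-factor quality control. The value is normalised viability at one listed concentration of the series.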

BT-549 [2] = test: as above; conditions: 100 nM; incubation time: 72 h
Method in brief: as §1

CAL-148 = test: as above; conditions: 10 nM; incubation time: 72 h
Method in brief: as §1

CAL-85-1 [3] = test: as above; conditions: 10 nM; incubation time: 72 h
Method in brief: as §1

DU-4475 [4] = test: as above; conditions: 10 nM; incubation time: 72 h
Method in brief: as §1

HCC1143 = test: as above; conditions: 100 nM; incubation time: 72 h
Method in brief: as §1

HCC1599 [5] = test: as above; conditions: 100 nM; incubation time: 72 h
Method in brief: as §1

HCC1937 [6] = test: as above; conditions: 100 nM; incubation time: 72 h
Method in brief: as §1

HDQ-P1 = test: as above; conditions: 10 nM; incubation time: 72 h
Method in brief: as §1

Hs578T [7] = test: as above; conditions: 100 nM; incubation time: 72 h
Method in brief: as §1

MDA-MB-231 [8] = test: as above; conditions: 100 nM; incubation time: 72 h
Method in brief: as §1

MDA-MB-453 [9] = test: as above; conditions: 10 nM; incubation time: 72 h
Method in brief: as §1

MDA-MB-468 [10] = test: as above; conditions: 100 nM; incubation time: 72 h
Method in brief: as §1

SK-BR-3 = test: as above; conditions: 100 nM; incubation time: 72 h
Method in brief: as §1

BT-474 [11] = test: drug sensitivity score (DSS), CellTox Green (DSS (AUC-based score)); higher = stronger drug effect (viability inhibition or cytotoxicity); extreme values may be limits of the assay; conditions: incubation time: 72 h
Method in brief: (§2)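 The area under the fitted dose-response curve was used to calculate the drug sensitivity score. Cells from breast cancer lines were incubated for 72 h in 384-well plates with compound at 5 concentrations spaced 10-fold over a 10,000-fold range specific to each compound. Plates were read for CellTox Green and then CellTiter-Glo, and normalised to 0.1 % DMSO and a positive kill control.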

BT-549 [12] = test: as above; conditions: incubation time: 72 h
Method in brief: as §2

CAL-120 = test: as above; conditions: incubation time: 72 h
Method in brief: as §2

CAL-51 = test: as above; conditions: incubation time: 72 h
Method in brief: as §2

CAL-85-1 [13] = test: as above; conditions: incubation time: 72 h
Method in brief: as §2

DU-4475 [14] = test: as above; conditions: incubation time: 72 h
Method in brief: as §2

HCC1599 [15] = test: as above; conditions: incubation time: 72 h
Method in brief: as §2

HCC1937 [16] = test: as above; conditions: incubation time: 72 h
Method in brief: as §2

Hs578T [17] = test: as above; conditions: incubation time: 72 h
Method in brief: as §2

MCF-10A = test: as above; conditions: incubation time: 72 h
Method in brief: as §2

MDA-MB-231 [18] = test: as above; conditions: incubation time: 72 h
Method in brief: as §2

MDA-MB-453 [19] = test: as above; conditions: incubation time: 72 h
Method in brief: as §2

MDA-MB-468 [20] = test: as above; conditions: incubation time: 72 h
Method in brief: as §2

MDA-MB-436 = test: as above; conditions: incubation time: 72 h
Method in brief: as §2

| Structure (SMILES) | normalised viability (BT-474 [1]) | normalised viability (BT-549 [2]) | normalised viability (CAL-148) | normalised viability (CAL-85-1 [3]) | normalised viability (DU-4475 [4]) | normalised viability (HCC1143) | normalised viability (HCC1599 [5]) | normalised viability (HCC1937 [6]) | normalised viability (HDQ-P1) | normalised viability (Hs578T [7]) | normalised viability (MDA-MB-231 [8]) | normalised viability (MDA-MB-453 [9]) | normalised viability (MDA-MB-468 [10]) | normalised viability (SK-BR-3) | drug sensitivity score (BT-474 [11]) | drug sensitivity score (BT-549 [12]) | drug sensitivity score (CAL-120) | drug sensitivity score (CAL-51) | drug sensitivity score (CAL-85-1 [13]) | drug sensitivity score (DU-4475 [14]) | drug sensitivity score (HCC1599 [15]) | drug sensitivity score (HCC1937 [16]) | drug sensitivity score (Hs578T [17]) | drug sensitivity score (MCF-10A) | drug sensitivity score (MDA-MB-231 [18]) | drug sensitivity score (MDA-MB-453 [19]) | drug sensitivity score (MDA-MB-468 [20]) | drug sensitivity score (MDA-MB-436) |
| --- | --- | --- | --- | --- | --- | --- | --- | --- | --- | --- | --- | --- | --- | --- | --- | --- | --- | --- | --- | --- | --- | --- | --- | --- | --- | --- | --- | --- |
| COCC1(CO)C(=O)C2CCN1CC2 (stereo not given) [Prima-1 Met] | 104% | 79.3% | 90.2% | 91.4% | 99.2% | 74.8% | 122% | 118% | 91.2% | 82.6% | 91.3% | 106% | 106% | 94.2% | 0 | 0 | 0 | 0 | 0 | 0 | 0 | 1.24 | 0 | 0 | 0 | 0 | 0 | – |
| NC(=O)c1ccc(I)c([N+](=O)[O-])c1 [Iniparib] | 94.6% | 106% | 96.3% | 87.6% | 101% | 86.8% | 103% | 109% | 108% | 91.8% | 98.8% | 86.2% | 96.7% | 72.4% | 0 | 0 | 0.0859 | 0.811 | 0 | 0 | 0 | 0 | – | 1.4 | 0 | 0 | 0 | 0 |
| Nc1cc(C(F)(F)F)c(-c2cc(N3CCOCC3)nc(N3CCOCC3)n2)cn1 [Buparlisib] | – | – | – | – | – | – | – | – | – | – | – | – | – | – | 3.4 | 1.91 | 0 | 6.04 | 0 | 0 | 0 | 0 | 2.89 | 0.18 | 7.38 | 0 | 0 | 0 |
| Cc1cc(Nc2cc(CN3CCOCC3)c3nc(C)c(Cc4ccc(Cl)cc4F)n3n2)n[nH]1 [Gandotinib] | – | – | – | – | – | – | – | – | – | – | – | – | – | – | 0 | 0 | 0 | 7.6 | 3.97 | 0 | 0 | 0 | 7.9 | 0 | 0 | 0 | 3.86 | 0.139 |
| CNC(=O)c1ccc(N2C(=S)N(c3ccc(C#N)c(C(F)(F)F)c3)C(=O)C23CCC3)cc1F [RD162] | – | – | – | – | – | – | – | – | – | – | – | – | – | – | 0 | 0 | 0 | 0 | 0 | 0 | 0 | 0 | 0 | 0 | 0 | 0 | 0 | 0 |
| CCn1c(-c2nonc2N)nc2cnc(Oc3cccc(NC(=O)c4ccc(OCCN5CCOCC5)cc4)c3)cc21 | – | – | – | – | – | – | – | – | – | – | – | – | – | – | 0 | 0 | 0 | 11.2 | 0 | 0 | 0 | 0 | 0 | 0 | 4.85 | 0 | 0.303 | 0 |
| CCc1c2c(nc3ccc(OC(=O)N4CCC(N5CCCCC5)CC4)cc13)-c1cc3c(c(=O)n1C2)COC(=O)[C@]3(O)CC [Irinotecan] | 110% and 106% | 91.5% and 90% | 86% and 102% | 90.9% and 99.3% | 115% and 123% | 89.1% and 112% | – | 93.2% and 84.8% | 102% and 126% | 97.9% and 90.4% | 90.9% and 103% | 102% and 115% | 102% and 108% | 80.2% and 85.2% | 0 | 0 | 0.997 | 10.7 | 0 | 0 | 0 | 0 | 1.06 | 0 | 0 | 0 | 0 | 0 |
| COC(=O)c1ccc2c(c1)NC(=O)/C2=C(\Nc1ccc(N(C)C(=O)CN2CCN(C)CC2)cc1)c1ccccc1 [Nintedanib] | – | – | – | – | – | – | – | – | – | – | – | – | – | – | 6.74 | 2.06 | 0 | 6.03 | 0 | 0 | 0 | 7.85 | 0 | 1.89 | 7.47 | 0 | 2.7 | 1.22 |
| CNC(=O)c1cccc(-c2ccc3c(N4CCOC[C@@H]4C)nc(N4CCOC[C@@H]4C)nc3n2)c1 [AZD2014] | – | – | – | – | – | – | – | – | – | – | – | – | – | – | 0 | 0 | 0 | 0 | 0 | 0 | 0 | 0 | 0 | 0 | 0 | 0 | 0 | 0 |

— the supplement of paper PMC4862054
